In patent US8969589B2, “Compounds acting at multiple prostaglandin receptors giving a general anti-inflammatory response” (Allergan, Inc., priority 2011, dated 2015):

How the values were obtained:
Type in all cases: cell-based
[1] = biological target: T1, human prostanoid EP4 receptor (Homo sapiens, UniProt P35408); assay: FLIPR Ca2+ signaling PG antagonist assay, EP4 stable cell line; details: antagonist Kb vs standard agonist PGE2; HEK-293 EBNA cells with chimeric Gqs
T1 construct: expressed in transfected cells
Experimental: (§1) The above compounds were tested for PG antagonist activity as follows using human recombinant prostanoid receptor (DP1, EP1-4, FP, IP and TP) stable cell lines:
(§2) In order to measure the response of Gs and Gi coupled prostanoid receptors as a Ca^2+ signal, chimeric G protein cDNAs were used. Stable cell lines over-expressing human prostanoid DP1, EP1-4, FP, IP, and TP receptors were established as follows:
(§3) Briefly, human prostanoid DP1, EP2, and EP4 receptor cDNAs were co-transfected with chimeric Gqs cDNA containing a haemagglutanin (HA) epitope; human prostanoid EP3 receptors were co-transfected with chimeric Gqi-HA; human EP1, FP, IP, and TP receptor cDNAs were expressed with no exogenous G-proteins. Gqs and Gqi chimeric cDNAs (Molecular Devices, Sunnyvale, Calif., U.S.A.), as well as cDNAs of prostanoid receptors, were cloned into a pCEP4 vector with a hygromycin B selection marker. Transfection into HEK-293 EBNA (Epstein-Barr virus nuclear antigen) cells was achieved by the FuGENE 6 transfection Reagent (Roche Applied Science, Indianapolis, Ind., USA). Stable transfectants were selected according to hygromycin resistance. Because Gqs and Gqi contained an HA epitope, G-protein expression was detected by Western blotting analysis using anti-mouse HA monoclonal antibody and horseradish peroxidase (HRP)-conjugated secondary antibody, while functional expression of prostanoid receptors was detected by FLIPR screening (Matias et al., 2004). These stable cell lines were validated using previously published antagonists at 10 μM against serial dilutions of standard agonists by FLIPR functional assays for Ca^2− Signaling (as described below).
(§4) Ca^2+ signaling studies were performed using a FLIPR TETRA system (Molecular Devices, Sunnyvale, Calif., USA) in the 384-format. This is a high-throughput instrument for cell-based assays to monitor Ca^2+ signaling associated with GPCRs and ion channels. Cells were seeded at a density of 5×10^4 cells/well in BioCoat poly-D-lysine coated, black wall, clear bottom 384-well plates (BD Biosciences, Franklin lakes, N.J., USA) and allowed to attach overnight in an incubator at 37° C. The cells were then washed twice with HBSS-HEPES buffer (Hanks' balanced salt solution without bicarbonate and phenol red, 20 mM HEPES, pH 7.4) using an ELx405 Select CW Microplate Washer (BioTek, Winooski, Vt., USA). […] Cells were excited with LED (light emitting diode) excitation at 470-495 nm and emission was measured through an emission filter at 515-575 nm. Assay plates were read for 3.5 minutes using the FLIPR^TETRA. The peak increase in fluorescence intensity was recorded for each well. […]

[2] = biological target: T2, human prostanoid EP2 receptor (Homo sapiens, UniProt P43116); assay: FLIPR Ca2+ signaling PG antagonist assay, EP2 stable cell line; details: antagonist Kb vs standard agonist PGE2; HEK-293 EBNA cells with chimeric Gqs
T2 construct: expressed in transfected cells
Experimental: as §1, §2, §3, §4

[3] = biological target: T3, human prostanoid EP1 receptor (Homo sapiens, UniProt P34995); assay: FLIPR Ca2+ signaling PG antagonist assay, EP1 stable cell line; details: antagonist Kb vs standard agonist PGE2; HEK-293 EBNA cells
T3 construct: expressed in transfected cells
T3 sequence (P34995 1-402): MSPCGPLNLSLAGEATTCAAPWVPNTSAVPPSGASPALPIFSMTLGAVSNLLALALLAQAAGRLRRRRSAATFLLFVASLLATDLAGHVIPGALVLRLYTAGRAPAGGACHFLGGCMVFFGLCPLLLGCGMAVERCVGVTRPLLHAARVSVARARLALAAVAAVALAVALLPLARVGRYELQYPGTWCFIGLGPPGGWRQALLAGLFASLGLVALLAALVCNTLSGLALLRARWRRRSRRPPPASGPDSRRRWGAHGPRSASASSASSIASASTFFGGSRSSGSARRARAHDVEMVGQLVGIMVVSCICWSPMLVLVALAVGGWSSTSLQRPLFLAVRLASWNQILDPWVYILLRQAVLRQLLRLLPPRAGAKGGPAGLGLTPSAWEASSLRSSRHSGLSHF
Experimental: as §1, §2, §3, §4

[4] = biological target: T4, human prostanoid DP1 receptor (Homo sapiens, UniProt Q13258); assay: FLIPR Ca2+ signaling PG antagonist assay, DP1 stable cell line; details: antagonist Kb vs standard agonist BW 245C; HEK-293 EBNA cells with chimeric Gqs
T4 construct: expressed in transfected cells
T4 sequence (Q13258 1-359): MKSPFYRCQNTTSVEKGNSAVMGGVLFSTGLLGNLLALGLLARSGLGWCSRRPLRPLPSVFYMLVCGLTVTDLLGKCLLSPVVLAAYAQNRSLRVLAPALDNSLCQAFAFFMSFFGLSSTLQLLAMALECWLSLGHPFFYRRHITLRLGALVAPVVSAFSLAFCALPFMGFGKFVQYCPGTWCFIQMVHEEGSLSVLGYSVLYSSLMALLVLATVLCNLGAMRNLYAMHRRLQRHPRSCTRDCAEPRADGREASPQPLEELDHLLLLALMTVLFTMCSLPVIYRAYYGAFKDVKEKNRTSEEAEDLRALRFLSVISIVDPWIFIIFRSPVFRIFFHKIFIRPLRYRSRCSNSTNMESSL
Experimental: as §1, §2, §3, §4

[5] = biological target: T5, human prostanoid EP3 receptor (Homo sapiens, UniProt P43115); assay: FLIPR Ca2+ signaling PG antagonist assay, EP3 stable cell line; details: antagonist Kb vs standard agonist PGE2; HEK-293 EBNA cells with chimeric Gqi
T5 construct: expressed in transfected cells
T5 sequence (P43115 1-390): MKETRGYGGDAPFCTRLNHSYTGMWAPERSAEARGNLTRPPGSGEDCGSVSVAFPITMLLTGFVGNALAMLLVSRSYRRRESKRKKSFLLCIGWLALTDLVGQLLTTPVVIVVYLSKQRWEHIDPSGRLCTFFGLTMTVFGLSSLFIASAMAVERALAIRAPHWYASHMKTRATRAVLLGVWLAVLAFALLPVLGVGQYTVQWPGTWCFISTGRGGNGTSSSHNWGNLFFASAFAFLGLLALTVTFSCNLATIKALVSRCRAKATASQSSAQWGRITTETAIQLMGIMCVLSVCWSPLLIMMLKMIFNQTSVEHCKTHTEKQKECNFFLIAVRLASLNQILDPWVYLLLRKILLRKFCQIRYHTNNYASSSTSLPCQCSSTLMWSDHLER
Experimental: as §1, §2, §3, §4

[6] = biological target: T6, human prostanoid IP receptor (Homo sapiens, UniProt P43119); assay: FLIPR Ca2+ signaling PG antagonist assay, IP stable cell line; details: antagonist Kb vs standard agonist Cicaprost; HEK-293 EBNA cells
T6 construct: expressed in transfected cells
Experimental: as §1, §2, §3, §4

[7] = biological target: T7, human prostanoid TP receptor (Homo sapiens, UniProt P21731); assay: FLIPR Ca2+ signaling PG antagonist assay, TP stable cell line; details: antagonist Kb vs standard agonist U-46619; HEK-293 EBNA cells
T7 construct: expressed in transfected cells
T7 sequence (P21731 1-343): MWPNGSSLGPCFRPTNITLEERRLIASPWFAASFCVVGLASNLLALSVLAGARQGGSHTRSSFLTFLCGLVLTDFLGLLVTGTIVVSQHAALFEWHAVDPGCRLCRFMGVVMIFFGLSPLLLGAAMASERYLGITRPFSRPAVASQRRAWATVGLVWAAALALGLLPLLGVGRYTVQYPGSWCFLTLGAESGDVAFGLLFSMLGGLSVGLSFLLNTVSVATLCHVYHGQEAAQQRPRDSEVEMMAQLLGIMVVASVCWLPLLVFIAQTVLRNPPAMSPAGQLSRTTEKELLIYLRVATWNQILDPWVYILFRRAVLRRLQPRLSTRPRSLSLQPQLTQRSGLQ
Experimental: as §1, §2, §3, §4

[8] = biological target: T8, human prostanoid FP receptor (Homo sapiens, UniProt P43088); assay: FLIPR Ca2+ signaling PG antagonist assay, FP stable cell line; details: antagonist Kb vs standard agonist 17-phenyl-PGF2α; HEK-293 EBNA cells
T8 construct: expressed in transfected cells
Experimental: as §1, §2, §3, §4

T2 sequence (P43116 whole entry): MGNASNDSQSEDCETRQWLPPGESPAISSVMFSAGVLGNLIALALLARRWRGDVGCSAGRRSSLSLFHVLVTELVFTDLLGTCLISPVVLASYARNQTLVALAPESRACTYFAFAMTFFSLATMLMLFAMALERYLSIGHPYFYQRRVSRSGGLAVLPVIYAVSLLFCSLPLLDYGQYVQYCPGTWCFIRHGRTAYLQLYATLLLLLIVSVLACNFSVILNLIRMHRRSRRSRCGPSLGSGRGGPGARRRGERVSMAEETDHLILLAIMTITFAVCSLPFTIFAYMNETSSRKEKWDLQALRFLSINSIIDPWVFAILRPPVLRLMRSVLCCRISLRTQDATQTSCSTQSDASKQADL
T6 sequence (P43119 whole entry): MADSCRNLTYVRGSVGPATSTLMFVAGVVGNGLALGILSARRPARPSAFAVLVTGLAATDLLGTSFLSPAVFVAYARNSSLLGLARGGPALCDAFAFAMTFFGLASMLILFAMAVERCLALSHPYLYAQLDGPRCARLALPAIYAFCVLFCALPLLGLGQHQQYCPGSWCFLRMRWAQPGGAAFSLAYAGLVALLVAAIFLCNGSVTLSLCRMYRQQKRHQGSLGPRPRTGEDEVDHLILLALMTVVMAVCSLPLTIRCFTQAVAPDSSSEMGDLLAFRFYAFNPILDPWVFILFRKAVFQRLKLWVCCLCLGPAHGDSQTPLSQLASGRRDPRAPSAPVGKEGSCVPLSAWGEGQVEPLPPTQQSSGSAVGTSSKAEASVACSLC
T8 sequence (P43088 whole entry): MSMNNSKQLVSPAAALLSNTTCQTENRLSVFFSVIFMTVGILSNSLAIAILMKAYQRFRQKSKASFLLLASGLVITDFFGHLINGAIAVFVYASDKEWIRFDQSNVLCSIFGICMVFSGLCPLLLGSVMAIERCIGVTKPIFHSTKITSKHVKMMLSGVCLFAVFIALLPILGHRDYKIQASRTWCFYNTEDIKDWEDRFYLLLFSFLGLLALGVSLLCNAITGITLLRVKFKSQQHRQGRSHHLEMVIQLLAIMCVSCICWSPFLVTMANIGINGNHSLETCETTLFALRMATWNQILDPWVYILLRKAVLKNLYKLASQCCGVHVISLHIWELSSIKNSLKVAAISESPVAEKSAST
T1 sequence (P35408 whole entry): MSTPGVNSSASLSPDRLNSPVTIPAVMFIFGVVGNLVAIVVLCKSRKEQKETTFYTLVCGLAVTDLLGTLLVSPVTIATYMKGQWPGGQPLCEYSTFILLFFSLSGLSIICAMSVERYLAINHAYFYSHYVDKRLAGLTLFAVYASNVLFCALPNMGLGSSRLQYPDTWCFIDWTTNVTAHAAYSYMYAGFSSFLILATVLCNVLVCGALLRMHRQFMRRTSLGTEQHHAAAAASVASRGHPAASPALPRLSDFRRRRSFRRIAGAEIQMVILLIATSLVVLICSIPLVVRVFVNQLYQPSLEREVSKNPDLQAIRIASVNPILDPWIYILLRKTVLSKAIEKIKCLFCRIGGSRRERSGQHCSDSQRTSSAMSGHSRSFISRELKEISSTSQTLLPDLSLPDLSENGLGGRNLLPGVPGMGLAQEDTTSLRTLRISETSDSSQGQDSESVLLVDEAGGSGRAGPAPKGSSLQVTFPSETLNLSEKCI

| SMILES | Kb [1] | Kb [2] | Kb [3] | Kb [4] | Kb [5] | Kb [6] | Kb [7] | Kb [8] | TP (Kb) [7] | DP1 (Kb) [4] |
| --- | --- | --- | --- | --- | --- | --- | --- | --- | --- | --- |
| CCC(CC)COc1ccc(Br)cc1Cn1nc(OCC(=O)O)cc1C [Example 1, {1-[5-bromo-2-(2-ethyl-butoxy)-benzyl]-5-methyl-1H-pyrazol-3-yl}-oxaacetic acid] | 130 nM | ≥ 10000 nM | 40 nM | 640 nM | ≥ 10000 nM | 220 nM | 2 nM | 250 nM |  |  |
| CCC(CC)COc1ccc(Cl)cc1Cn1nc(OCC(=O)O)cc1C [Example 2, {1-[5-chloro-2-(2-ethyl-butoxy)-benzyl]-5-methyl-1H-pyrazol-3-yloxy}-acetic acid] | 350 nM | ≥ 10000 nM | 75 nM | 500 nM | ≥ 10000 nM | 600 nM |  | 980 nM | PAg |  |
| Cc1cc(OCC(=O)O)nn1Cc1cc(Cl)ccc1OCc1ccc(Cl)cc1 [Example 3, {1-[5-chloro-2-(4-chloro-benzyloxy)-benzyl]-5-methyl-1H-pyrazol-3-yloxy}-acetic acid] | ≥ 10000 nM | 340 nM | 9 nM | 1000 nM | 3700 nM | 500 nM | 1 nM | 220 nM |  |  |
| Cc1cc(OCC(=O)O)nn1Cc1cc(Cl)ccc1OCC(C)C [Example 4, [1-(5-chloro-2-isobutoxy-benzyl)-5-methyl-1H-pyrazol-3-yloxy]-acetic acid] | ≥ 10000 nM | ≥ 10000 nM | 110 nM |  | ≥ 10000 nM | ≥ 10000 nM | 15 nM | 1700 nM |  | PAg |
